Measured values reported in ChEMBL document CHEMBL4699665, “Discovery of ANT3310, a Novel Broad-Spectrum Serine β-Lactamase Inhibitor of the Diazabicyclooctane Class, Which Strongly Potentiates Meropenem Activity against Carbapenem-Resistant Enterobacterales and Acinetobacter baumannii” (J Med Chem, 2020).
pIC50: −log10 of the molar value. In brackets after ≈: the same amount, converted by molar mass.

How the values were obtained:
Klebsiella pneumoniae [1] = assay: Antibacterial activity against Klebsiella pneumoniae expressing TEM-OSBL/CTX-M-14/OXA-48 by broth microdilution method; assay type: functional
Klebsiella pneumoniae [2] = assay: Antibacterial activity against Klebsiella pneumoniae expressing SHV-11/OXA-181 by broth microdilution method; assay type: functional
Enterobacter cloacae [3] = assay: Antibacterial activity against Enterobacter cloacae expressing TEM-1/KPC-2 by broth microdilution method; assay type: functional
Klebsiella pneumoniae [4] = assay: Antibacterial activity against Klebsiella pneumoniae expressing TEM-1/SHV-11/KPC-3 by broth microdilution method; assay type: functional
Acinetobacter baumannii [5] = assay: Antibacterial activity against Acinetobacter baumannii expressing OXA-23 by broth microdilution method; assay type: functional
[6] = Inhibition of beta lactamase TEM-1 in Enterobacter cloacae assessed as decrease in enzyme activity using nitrocefin as substrate preincubated for 10 mins followed by substrate addition measured for 10 mins by fluorescence plate reader analysis
[7] = Inhibition of beta lactamase OXA-48 in Enterobacter cloacae assessed as decrease in enzyme activity using nitrocefin as substrate preincubated for 10 mins followed by substrate addition measured for 10 mins by fluorescence plate reader analysis
Klebsiella pneumoniae [8] = assay: Potentiation of meropenem-induced antibacterial activity against Klebsiella pneumoniae expressing TEM-OSBL/CTX-M-14/OXA-48 assessed as meropenem MIC at 4 ug/ml by broth microdilution method (reference value: 16 ug/ml); assay type: functional; conditions: dose 4 µg/ml
[9] = Inhibition of bacteria beta lactamase OXA-23 assessed as decrease in enzyme activity using nitrocefin as substrate preincubated for 10 mins followed by substrate addition measured for 10 mins by fluorescence plate reader analysis
[10] = Inhibition of beta lactamase KPC-2 in Enterobacter cloacae assessed as decrease in enzyme activity using nitrocefin as substrate preincubated for 10 mins followed by substrate addition measured for 10 mins by fluorescence plate reader analysis
Acinetobacter baumannii [11] = assay: Potentiation of meropenem-induced antibacterial activity against Acinetobacter baumannii expressing OXA-23 assessed as meropenem MIC at 4 ug/ml by broth microdilution method (reference value: 32 ug/ml); assay type: functional; conditions: dose 4 µg/ml
Enterobacter cloacae [12] = assay: Potentiation of meropenem-induced antibacterial activity against Enterobacter cloacae expressing TEM-1/KPC-2 assessed as meropenem MIC at 4 ug/ml by broth microdilution method (reference value: 8 ug/ml); assay type: functional; conditions: dose 4 µg/ml
Klebsiella pneumoniae [13] = assay: Potentiation of meropenem-induced antibacterial activity against Klebsiella pneumoniae expressing SHV-11/OXA-121 assessed as meropenem MIC at 4 ug/ml by broth microdilution method (reference value: 16 ug/ml); assay type: functional; conditions: dose 4 µg/ml
[14] = Inhibition of beta lactamase CTXM-15 in Enterobacter cloacae assessed as decrease in enzyme activity using nitrocefin as substrate preincubated for 10 mins followed by substrate addition measured for 10 mins by fluorescence plate reader analysis
[15] = Inhibition of beta lactamase AmpC in Enterobacter cloacae assessed as decrease in enzyme activity using nitrocefin as substrate preincubated for 10 mins followed by substrate addition measured for 10 mins by fluorescence plate reader analysis
Klebsiella pneumoniae [16] = assay: Potentiation of meropenem-induced antibacterial activity against Klebsiella pneumoniae expressing TEM-1/SHV-11/KPC-3 assessed as meropenem MIC at 4 ug/ml by broth microdilution method (reference value: 128 ug/ml); assay type: functional; conditions: dose 4 µg/ml
[17] = Half life in rat at 1 mg/kg, iv; assay type: ADME, organism-based; conditions: in vivo
[18] = Volume of distribution in rat at 1 mg/kg, iv; assay type: ADME, organism-based; conditions: in vivo
[19] = Clearance in rat at 1 mg/kg, iv; assay type: ADME, organism-based; conditions: in vivo
[20] = AUC in rat at 1 mg/kg, iv; assay type: ADME, organism-based; design: dose 1 mg/kg; conditions: in vivo
Acinetobacter baumannii [21] = assay: Inhibition of beta lactamase OXA in carbapenem-resistant Acinetobacter baumannii assessed as meropenem-induced antibacterial activity by measuring meropenem MIC50 at 4 ug/ml by broth microdilution method (Rvb > 32 ug/ml); conditions: dose 4.0 µg/ml
Acinetobacter baumannii [22] = assay: Inhibition of beta lactamase OXA in carbapenem-resistant Acinetobacter baumannii assessed as meropenem-induced antibacterial activity by measuring meropenem MIC90 at 4 ug/ml by broth microdilution method (Rvb > 32 ug/ml); conditions: dose 4.0 µg/ml
Acinetobacter baumannii [23] = assay: Inhibition of beta lactamase OXA in carbapenem-resistant Acinetobacter baumannii assessed as meropenem minimum concentration required for antibacterial activity at 4 ug/ml by broth microdilution method (reference value: 8 ug/ml); conditions: dose 4.0 µg/ml
Enterobacter [24] = assay: Inhibition of beta lactamase OXA in carbapenem-resistant Enterobacter assessed as meropenem minimum concentration required for antibacterial activity at 4 ug/ml by broth microdilution method (reference value: 2 ug/ml); conditions: dose 4.0 µg/ml
Enterobacter [25] = assay: Inhibition of beta lactamase KPC in carbapenem-resistant Enterobacter assessed as meropenem maximum concentration required for antibacterial activity at 4 ug/ml by broth microdilution method (Rvb >32 ug/ml); conditions: dose 4.0 µg/ml
Enterobacter [26] = assay: Inhibition of beta lactamase OXA in carbapenem-resistant Enterobacter assessed as meropenem maximum concentration required for antibacterial activity at 4 ug/ml by broth microdilution method (Rvb > 32 ug/ml); conditions: dose 4.0 µg/ml
Enterobacter [27] = assay: Inhibition of beta lactamase KPC in carbapenem-resistant Enterobacter assessed as meropenem-induced antibacterial activity by measuring meropenem MIC90 at 4 ug/ml by broth microdilution method (Rvb >32 ug/ml); conditions: dose 4.0 µg/ml
Enterobacter [28] = assay: Inhibition of beta lactamase KPC in carbapenem-resistant Enterobacter assessed as meropenem minimum concentration required for antibacterial activity at 4 ug/ml by broth microdilution method (reference value: 4 ug/ml); conditions: dose 4.0 µg/ml
Acinetobacter baumannii [29] = assay: Inhibition of beta lactamase OXA in carbapenem-resistant Acinetobacter baumannii assessed as meropenem maximum concentration required for antibacterial activity at 4 ug/ml by broth microdilution method (Rvb > 32 ug/ml); conditions: dose 4.0 µg/ml
Enterobacter [30] = assay: Inhibition of beta lactamase KPC in carbapenem-resistant Enterobacter assessed as meropenem-induced antibacterial activity by measuring meropenem MIC50 at 4 ug/ml by broth microdilution method (Rvb >32 ug/ml); conditions: dose 4.0 µg/ml
Enterobacter [31] = assay: Inhibition of beta lactamase OXA in carbapenem-resistant Enterobacter assessed as meropenem-induced antibacterial activity by measuring meropenem MIC50 at 4 ug/ml by broth microdilution method (reference value: 16 ug/ml); conditions: dose 4.0 µg/ml
Enterobacter [32] = assay: Inhibition of beta lactamase OXA in carbapenem-resistant Enterobacter assessed as meropenem-induced antibacterial activity by measuring meropenem MIC 90 at 4 ug/ml by broth microdilution method (Rvb >32 ug/ml); conditions: dose 4.0 µg/ml

Structure (SMILES)	pIC50 [6]	pIC50 [7]	MIC (Klebsiella pneumoniae [8]) [µg/mL]	pIC50 [9]	pIC50 [10]	MIC (Acinetobacter baumannii [11]) [µg/mL]	MIC (Enterobacter cloacae [12]) [µg/mL]	MIC (Klebsiella pneumoniae [13]) [µg/mL]	pIC50 [14]	pIC50 [15]	MIC (Klebsiella pneumoniae [16]) [µg/mL]	also measured
O=C(NNC(=O)[C@@H]1CC[C@@H]2CN1C(=O)N2OS(=O)(=O)O)[C@@H]1CCCNC1 [ZIDEBACTAM]												MIC (Klebsiella pneumoniae [1]): 0.25 µg/mL (≈ 0.639 µM); MIC (Klebsiella pneumoniae [2]): 2 µg/mL (≈ 5.11 µM); MIC (Enterobacter cloacae [3]): 0.5 µg/mL (≈ 1.28 µM); MIC (Klebsiella pneumoniae [4]): 2 µg/mL (≈ 5.11 µM); MIC (Acinetobacter baumannii [5]): > 128 µg/mL
O=C1N2C[C@@H](CC[C@H]2C(F)(F)F)N1OS(=O)(=O)[O-].[Na+]	6.09	7.72	2	6.09	8.22	16	0.06	2	8.00	8.40	2	
O=C1N2C[C@@H](CC[C@H]2CCl)N1OS(=O)(=O)[O-].[Na+]	6.87	6.35	8	< 5.52	7.55	32	0.06	16	7.08	7.59	2	
NC(=O)[C@@H]1CC[C@@H]2CN1C(=O)N2OS(=O)(=O)O [AVIBACTAM]	8.30	6.60	0.5	< 5.52	8.10	16	0.03	1	9.00	8.10	0.25	half-life [17]: 22.2 min; MIC (Klebsiella pneumoniae [1]): 16 µg/mL (≈ 60.3 µM); MIC (Klebsiella pneumoniae [2]): 32 µg/mL (≈ 121 µM); MIC (Enterobacter cloacae [3]): 16 µg/mL (≈ 60.3 µM); Vd [18]: 1.9 L/kg; clearance [19]: 59 mL/min/kg; AUC [20]: 279 ng·h/mL; MIC (Klebsiella pneumoniae [4]): 16 µg/mL (≈ 60.3 µM); MIC (Acinetobacter baumannii [5]): > 128 µg/mL
O=C1N2C[C@@H](CC[C@H]2Cl)N1OS(=O)(=O)[O-].[Na+]	9.00	6.57	4		7.51	32	0.06	4	8.10	8.40	64	
CC(F)(F)[C@@H]1CC[C@@H]2CN1C(=O)N2OS(=O)(=O)[O-].[Na+]	6.57	6.77	8	< 5.52	7.37	32	0.06	16	6.70	6.50	2	
O=C1N2CCC[C@H](C2)N1OS(=O)(=O)[O-].[Na+]	6.29	5.87	4	< 5.52	< 5.52	32	2	8	5.92	< 5.52	64	
O=C1N2C[C@@H](CC[C@H]2CF)N1OS(=O)(=O)[O-].[Na+]	6.31	6.81	1	< 5.52	7.29	32	0.125	1	6.92	6.52	2	
O=C1N2C[C@@H](CC[C@H]2SC(F)(F)F)N1OS(=O)(=O)[O-].[Na+]	7.59	7.00	8	5.88	8.70	32	0.03	8	8.00	8.70	4	
O=C1N2C[C@@H](CC[C@H]2C(F)(F)c2nccs2)N1OS(=O)(=O)[O-].[Na+]	6.67	5.96	16	< 5.52	8.52	32	0.125	16	7.72	9.00	8	
N#C[C@@H]1CC[C@@H]2CN1C(=O)N2OS(=O)(=O)[O-].[Na+]	7.17	8.70	0.06	7.23	8.10	4	0.06	0.25	8.40	8.52	0.5	MIC50 (Acinetobacter baumannii [21]): 16 µg/mL; MIC90 (Acinetobacter baumannii [22]): 32 µg/mL; MIC (Acinetobacter baumannii [23]): 0.25 µg/mL; MIC (Enterobacter [24]): < 0.03 µg/mL; Activity (Enterobacter [25]): 16 µg/mL; Activity (Enterobacter [26]): 0.5 µg/mL; MIC90 (Enterobacter [27]): 1 µg/mL; MIC (Enterobacter [28]): < 0.03 µg/mL; Activity (Acinetobacter baumannii [29]): > 32 µg/mL; MIC50 (Enterobacter [30]): 0.06 µg/mL; MIC50 (Enterobacter [31]): 0.12 µg/mL; MIC90 (Enterobacter [32]): 0.25 µg/mL
O=C1N2C[C@@H](CC[C@H]2COC(F)(F)F)N1OS(=O)(=O)[O-].[Na+]	6.93	7.82	8	< 5.52	7.89	32	0.25	16	7.96	7.64	32	
O=C1N2C[C@@H](CC[C@H]2C(Cl)Cl)N1OS(=O)(=O)[O-].[Na+]	6.39	6.75	16	5.77	8.40	32	0.06	16	6.75	7.28	2	
O=C1N2C[C@@H](CC[C@H]2S(=O)(=O)C(F)(F)F)N1OS(=O)(=O)[O-].[Na+]	9.00	7.82	8		7.82	32	0.06	16	8.70	> 9.00	8	
O=C1N2C[C@@H](CC[C@H]2C(F)F)N1OS(=O)(=O)[O-].[Na+]	6.68	7.19	2	5.79	8.15	16	0.06	1	7.77	7.46	1	
